Two molecules from patent US20200267980A1, “Herbicidally Active Pyridyl-/Pyrimidyl-Pyrimidine Derivatives” (Syngenta Participations AG, priority 2017, published 2020) can be followed below.

Assay type in all cases: in vivo
The subject of test [1] is Alopecurus myosuroides (ALOMY). Put plainly: Pre-emergence herbicidal activity, glasshouse pot test. Conditions: 1000 g/ha, pre-emergence spray, evaluated after 13 days, damage score 0-5. Also noted: key: 5=total damage to plant; 0=no damage to plant. The method in brief:
(§1)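 In a glasshouse pot test (24/16 °C day/night, 14 h light, 65% humidity), sown seeds are sprayed after one day with formulated compound (acetone/water 50:50, 0.5% Tween 20). Plants are watered twice daily and assessed at day 13, where 5 means total damage and 0 none.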

Test [2] deals with Avena fatua (AVEFA). Described as above. Further details: key: 5=total damage to plant; 0=no damage to plant. Conditions: 1000 g/ha, pre-emergence spray, evaluated after 13 days, damage score 0-5. The essentials:
as §1

Test [3] has as its system Echinochloa crus-galli (ECHCG). Described as above. Further details: key: 5=total damage to plant; 0=no damage to plant. Conditions: 1000 g/ha, pre-emergence spray, evaluated after 13 days, damage score 0-5. The essentials:
as §1

Test [4] concerns Lolium perenne (LOLPE). The test is described as above. Also noted: key: 5=total damage to plant; 0=no damage to plant. To be noted: 1000 g/ha, pre-emergence spray, evaluated after 13 days, damage score 0-5. The essentials:
as §1

For test [5], the system named is Setaria faberi (SETFA). Described as above. Further details: key: 5=total damage to plant; 0=no damage to plant. To be noted: 1000 g/ha, pre-emergence spray, evaluated after 13 days, damage score 0-5. The essentials: as §1
Test [6] has as its system Triticum aestivium (TRZAW). Described as above. Also noted: key: 5=total damage to plant; 0=no damage to plant. Conditions: 1000 g/ha, pre-emergence spray, evaluated after 13 days, damage score 0-5. The method in brief: as §1
Test [7] relates to Alopecurus myosuroides (ALOMY). Description: Post-emergence herbicidal activity, glasshouse pot test. Further details: key: 5=total damage to plant; 0=no damage to plant. To be noted: 1000 g/ha, post-emergence spray after 8 days cultivation, evaluated after 13 days, damage score 0-5. The essentials:
(§2)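 Post-emergence spray, 8-day-old pot-grown plants; vehicle acetone/water 50:50 + 0.5% Tween 20. Glasshouse 24/16° C day/night, 14 h light, 65% RH, watered 2×/day. Visual damage rated day 13, 0–5.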

The subject of test [8] is Echinochloa crus-galli (ECHCG). The description is as above. Further details: key: 5=total damage to plant; 0=no damage to plant. To be noted: 1000 g/ha, post-emergence spray after 8 days cultivation, evaluated after 13 days, damage score 0-5. The essentials: as §2
In test [9] the test system is Lolium perenne (LOLPE). Described as above. Further details: key: 5=total damage to plant; 0=no damage to plant. To be noted: 1000 g/ha, post-emergence spray after 8 days cultivation, evaluated after 13 days, damage score 0-5. The method in brief:
as §2

Test [10] concerns Setaria faberi (SETFA). Described as above. Further details: key: 5=total damage to plant; 0=no damage to plant. To be noted: 1000 g/ha, post-emergence spray after 8 days cultivation, evaluated after 13 days, damage score 0-5. The essentials: as §2
Test [11] relates to Triticum aestivium (TRZAW). The description is as above. Also noted: key: 5=total damage to plant; 0=no damage to plant. Conditions: 1000 g/ha, post-emergence spray after 8 days cultivation, evaluated after 13 days, damage score 0-5. The method in brief: as §2
The test system of test [12] is Avena fatua (AVEFA). The description is as above. To be noted: 1000 g/ha, post-emergence spray after 8 days cultivation, evaluated after 13 days, damage score 0-5. The essentials: as §2

With `O=C(Nc1cnc(-c2cncc(F)c2)nc1C(F)(F)F)c1ccccc1` [Compound F10], the “Control of weed species after pre-emergence application, ALOMY” value in test [1] stood at 0. The “Control of weed species after pre-emergence application, AVEFA” value with Avena fatua (AVEFA) [2] came out at 1. Besides, the “Control of weed species after pre-emergence application, ECHCG” value in [3] was 4. In addition, the “Control of weed species after pre-emergence application, LOLPE” value with Lolium perenne (LOLPE) [4] is given as 1. Also, the “Control of weed species after pre-emergence application, SETFA” value in the test with Setaria faberi (SETFA) [5] is recorded as 4. Besides, the “Control of weed species after pre-emergence application, TRAZW” value in test [6] came to 0. In addition, the “Control of weed species after post-emergence application, ALOMY” value in test [7] came out at 0. For the same molecule, the “Control of weed species after post-emergence application, ECHCG” value in [8] turned out to be 5. Moreover, the “Control of weed species after post-emergence application, LOLPE” value in the test with Lolium perenne (LOLPE) [9] is 1. Besides, the “Control of weed species after post-emergence application, SETFA” value with Setaria faberi (SETFA) [10] is on record as 5. For the same molecule, the “Control of weed species after post-emergence application, TRAZW” value in test [11] amounted to 1. Also, the “Control of weed species after post-emergence application, AVEFA” value in the test with Avena fatua (AVEFA) [12] is 2.

`O=C(CC(F)(F)F)Nc1cnc(-c2cncc(F)c2)nc1C(F)(F)F` [Compound F23]: in test [1], the “Control of weed species after pre-emergence application, ALOMY” value is 0. In the test with Avena fatua (AVEFA) [2], the “Control of weed species after pre-emergence application, AVEFA” value was 0. For the same molecule, the “Control of weed species after pre-emergence application, ECHCG” value in test [3] is reported as 3. Also, the “Control of weed species after pre-emergence application, LOLPE” value in the test with Lolium perenne (LOLPE) [4] is 0. In addition, in the test with Setaria faberi (SETFA) [5], the “Control of weed species after pre-emergence application, SETFA” value worked out at 5. Also, in [6], the “Control of weed species after pre-emergence application, TRAZW” value was found to be 0. For the same molecule, the “Control of weed species after post-emergence application, ALOMY” value in test [7] was 0. For the same molecule, in [8], the “Control of weed species after post-emergence application, ECHCG” value was determined as 5. In addition, the “Control of weed species after post-emergence application, LOLPE” value in the test with Lolium perenne (LOLPE) [9] is recorded as 2. The “Control of weed species after post-emergence application, SETFA” value in the test with Setaria faberi (SETFA) [10] amounted to 5. For the same molecule, the “Control of weed species after post-emergence application, TRAZW” value in test [11] was 0. In addition, the “Control of weed species after post-emergence application, AVEFA” value in the test on Avena fatua (AVEFA) [12] is 3.
